Experimental data reported in PubChem BioAssay (NCI).
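96-well plates; 48 h exposure; 5 concentrations. Endpoints by linear interpolation between flanking doses. Not reached: highest tested concentration assigned. At the TGI there is no net growth.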 Where a SMILES comes first, the peptide text is derived from it. The star is where a group is joined. Boc = CC(C)(C)OC(=O)*

Experiments:
Assay in all cases: NCI-60 cell line screen, 48 h
SW-620 colon = system: SW-620 colon
OVCAR-5 ovarian = system: OVCAR-5 ovarian
CAKI-1 renal = system: CAKI-1 renal
KM12 colon = system: KM12 colon
OVCAR-4 ovarian = system: OVCAR-4 ovarian
SNB-75 CNS = system: SNB-75 CNS
HL-60(TB) leukemia = system: HL-60(TB) leukemia
SF-539 CNS = system: SF-539 CNS
SR leukemia = system: SR leukemia
A498 renal = system: A498 renal

Structure (SMILES) | TGI (SW-620 colon) | TGI (OVCAR-5 ovarian) | TGI (CAKI-1 renal) | TGI (KM12 colon) | TGI (OVCAR-4 ovarian) | TGI (SNB-75 CNS) | TGI (HL-60(TB) leukemia) | TGI (SF-539 CNS) | TGI (SR leukemia) | TGI (A498 renal)
Cc1cc(=O)n2nc(CSc3nnc(N)s3)sc2n1 | > 100 µM | > 100 µM | > 100 µM | > 100 µM | > 100 µM | > 100 µM | > 100 µM | > 100 µM | – | –
CCOC(=O)/C(C#N)=C/c1ccc(CO)o1 | > 100 µM | > 100 µM | > 100 µM | > 100 µM | > 100 µM | > 100 µM | – | > 100 µM | > 100 µM | > 100 µM
NS(=O)(=O)c1ccc(Nc2c3ccccc3nc3c(C(=O)NCCCN(CCO)CCO)cccc23)cc1 | 52.7 µM | 98.4 µM | > 100 µM | 38.5 µM | > 100 µM | – | – | – | 40.6 µM | > 100 µM
CCCC(CC)c1c(O)c(O)c(C(CC)CCC)c(C(CC)CCC)c1C(CC)CCC (stereo not drawn) | > 10 µM | > 10 µM | > 10 µM | > 10 µM | > 10 µM | – | > 10 µM | > 10 µM | > 10 µM | > 10 µM
COC(=O)c1ccccc1C#CCCCOS(C)(=O)=O | > 10 µM | > 10 µM | > 10 µM | > 10 µM | > 10 µM | – | > 10 µM | > 10 µM | > 10 µM | > 10 µM
Oc1ccc2c(c1)CC[N+]1=C2CCC2CCCC21 (stereo not drawn) | > 100 µM | > 100 µM | > 100 µM | – | > 100 µM | > 100 µM | – | > 100 µM | – | –
COc1ccccc1NC(=S)N/N=C(/C)c1ccccn1 | > 100 µM | > 100 µM | > 100 µM | > 100 µM | > 100 µM | 49.2 µM | 2.08 µM | 14.9 µM | – | –
C=CCN(c1cc(OCc2ccccc2)c(NC(C)=O)cc1[N+](=O)[O-])S(C)(=O)=O | > 100 µM | > 100 µM | > 100 µM | > 100 µM | > 100 µM | 43.6 µM | > 100 µM | 31.8 µM | – | 41.6 µM
COc1ccc(C(=C(I)c2ccccc2)c2ccc(OC)cc2)cc1 | > 100 µM | > 100 µM | > 100 µM | > 100 µM | > 100 µM | – | > 100 µM | > 100 µM | > 100 µM | –
CCN(CC)C(=S)N/N=C/c1ccccn1 | > 100 µM | > 100 µM | > 100 µM | > 100 µM | > 100 µM | 44.8 µM | 4.09 µM | 0.377 µM | > 54.8 µM | –
CCc1nn(S(=O)(=O)c2ccc(C)cc2)c2c1CS(=O)(=O)CC2 | > 100 µM | > 100 µM | > 100 µM | > 100 µM | > 100 µM | > 100 µM | – | > 100 µM | – | > 100 µM
Cc1cc2ccccc2n1CC(=O)N1CCCC1 | > 100 µM | > 100 µM | – | > 100 µM | > 100 µM | > 100 µM | > 100 µM | > 100 µM | > 100 µM | –
C=C(CC(=O)Nc1ccc(C(=O)OC)o1)C(=O)OC | 53.5 µM | 35.5 µM | 41.9 µM | 42.5 µM | 71.6 µM | > 100 µM | – | 36.1 µM | – | > 100 µM
CN(C)CCOC(=O)c1ccc(N)cc1 | > 100 µM | > 100 µM | > 100 µM | > 100 µM | > 100 µM | – | 83.7 µM | – | – | > 100 µM
[N-]=[N+]=NC1CC(n2cc(COCC(F)(F)F)c(=O)[nH]c2=O)OC1CO (stereo not drawn) | > 100 µM | > 100 µM | > 100 µM | > 100 µM | > 100 µM | > 100 µM | > 100 µM | > 100 µM | – | > 100 µM
CC1(C)[C@@H](Cn2cnc3c(=O)[nH]c(N)nc32)CC[C@@]1(C)CO | > 100 µM | > 100 µM | > 100 µM | > 100 µM | > 100 µM | > 100 µM | – | > 100 µM | – | > 100 µM
CCOC(=O)CCc1c(C(=O)OCC)[nH]c(/C=C2\NC(=O)C(C)=C2CC)c1C | – | 86.3 µM | 78.7 µM | > 100 µM | 59.4 µM | 27.8 µM | > 100 µM | 69.6 µM | – | –
O=C(NNc1cn[nH]c(=O)c1Cl)/C(=C/c1ccc2c(c1)OCO2)NC(=O)c1ccccc1 | > 100 µM | > 100 µM | 56.2 µM | > 100 µM | > 100 µM | 86.2 µM | – | > 100 µM | – | –
COC(=O)C(Cc1c[nH]c2ccccc12)NC(=O)C(Cc1c[nH]c2ccccc12)NC(=O)C(Cc1c[nH]c2ccccc12)NC(=O)C(Cc1c[nH]c2ccccc12)NC(=O)OC(C)(C)C (stereo not drawn) (Boc-WWWW-OMe; configuration not given here) | 62.8 µM | > 100 µM | > 100 µM | – | > 100 µM | > 100 µM | 43.4 µM | – | 56.6 µM | –
CCCn1c(=O)c2ccccc2[n+]2c(-c3ccc([N+](=O)[O-])cc3)csc12 | > 100 µM | > 100 µM | > 100 µM | 78.3 µM | > 100 µM | 94.6 µM | 57.9 µM | 49.2 µM | – | 74.4 µM
CCOC(=O)C(NC(=O)CC(C)C)(Nc1ccc(C(F)(F)F)cc1)C(F)(F)F (stereo not drawn) | > 100 µM | > 100 µM | – | 55.6 µM | > 100 µM | 60.9 µM | 59.9 µM | > 100 µM | > 100 µM | –
Cc1ccc(S(=O)(=O)NC(=O)NCCC(=O)O)cc1 | > 100 µM | > 100 µM | – | > 100 µM | > 100 µM | > 100 µM | > 100 µM | > 100 µM | > 100 µM | –
CC1(C)CN(c2ccccc2)C(=O)C1OC(=O)[C@@]1(C)C[C@@H]2C=C[C@H]1C2 (stereo partly drawn) | > 100 µM | 56.6 µM | 61.5 µM | 45.2 µM | 39.9 µM | 75 µM | 46.3 µM | 52.9 µM | – | 61.3 µM
CC(NC(=O)OCc1ccccc1)NC(=O)C(CC(=O)OC(C)(C)C)NC(=O)OC(C)(C)C (stereo not drawn) | > 100 µM | > 100 µM | > 100 µM | > 100 µM | > 100 µM | > 100 µM | – | > 100 µM | – | > 100 µM
